Where no end group is shown, it is not given here. [ ]: non-standard residue; d: D form.
How the values were obtained:
wild-type Jurkat cells [1] = assay: IL-12 secretion in stimulated wild-type Jurkat cells (ELISA); type: cell-based, human; settings: biotinylated anti-CD3, anti-CD28, avidin; 48 h exposure
Description: The ability of Lck activating polypeptides to alter IL-12 secretion was examined. In brief, wild-type Jurkat cells (an immortalised line of human T lymphocyte cells) were stimulated by exposure to biotinylated anti-CD3 antibody in the presence of anti-CD28 antibody and avidin. During the culture period (48 hours) cells were exposed to test polypeptides. Cell supernatant was assayed for IL-12 at the end of 48 hours using a standard commercially available ELISA kit as described above.
In brief, cells were seeded at 1 million cells per well (12 well plate, 2 mL volume) and stimulated with Biotin-CD3, CD28, and avidin (5:5:1.25 μg). The cells were then treated with IK14800 (SEQ ID NO: 24), IK15800 (SEQ ID NO: 58), IK14804 (SEQ ID NO: 65) and IK15804 (SEQ ID NO: 66). The cells were then incubated for 48 hours at 37° C. The supernatants (100 uL, n=3), were then analyzed for IL-12 content.
In brief, wild-type Jurkat cells (am immortalised line of human T lymphocyte cells) were stimulated by exposure to biotinylated anti-CD3 antibody in the presence of anti-CD28 antibody and avidin. Cells were seeded at 1 million cells per well (12 well plate, 2 mL volume) and stimulated with Biotin-anti-CD3, anti-CD28, and avidin (5:5:1.25 μg). Cells were treated with the test peptides and then incubated for 48 hours at 37° C. The supernatants (100 ul, n=3), were then analysed for IL-2 and IL-12 content. […]

human PBMCs = assay: IFN-γ secretion by anti-CD3 stimulated PBMCs; type: cell-based; settings: 48 hours; data not shown
Description: The ability of Lck activating polypeptides to alter IFN-γ secretion by human PBMCs was examined. In brief, anti-CD3 stimulated PBMCs were cultured together with the Lck activating polypeptides RRRRRRRRR (SEQ ID NO: 6), RVKVKVVVV-RRRRRRRRR (SEQ ID NO: 58) and RSKAKNPLY-RRRRRRRRR (SEQ ID NO: 24) for 48 hours after which supernatants were collected and assessed for IFN-γ by ELISA.

isolated CD4+ T cells = assay: IL-21R (CD360) expression in stimulated CD4+ T cell assay; type: cell-based, human; settings: anti-CD3 anti-CD28 Dynabeads; data not shown
Description: The effect of Lck activating polypeptides on IL-21R (CD360) expression on CD4+ T cells in a stimulated CD4+ T cell assay was examined. In brief, Isolated CD4+ T cells were stimulated with anti-CD3 anti-CD28 Dynabeads™ and cultured together with the Lck activating polypeptides RRRRRRRRR (SEQ ID NO: 6) and RSKAKNPLY-RRRRRRRRR (SEQ ID NO: 24), after which cells were assessed for IL-21R expression by flow cytometry.

[2] = system: isolated human CD4+ T cells; assay: IFN-γ secretion in stimulated CD4+ T cell assay; type: cell-based; settings: anti-CD3 anti-CD28 Dynabeads, 24 hours
Description: The ability of Lck activating polypeptides to alter IFN-γ secretion by isolated human CD4+ T cells in a stimulated CD4+ T cell assay was also examined. In brief, Isolated CD4+ T cells were stimulated with anti-CD3 anti-CD28 Dynabeads™ and cultured together with the Lck activating polypeptides RRRRRRRRR (SEQ ID NO: 6, IK00900) and RSKAKNPLY-RRRRRRRRR (SEQ ID NO: 24, IK14800) for 24 hours after which supernatants were assessed for IFN-γ by ELISA.
The ability of Lck activating polypeptides comprising D amino acids to alter IFN-γ secretion by isolated human CD4+ T cells in a stimulated CD4+ T cell assay was also examined. In brief, Isolated CD4+ T cells were stimulated with anti-CD3 anti-CD28 Dynabeads™ and cultured together with the Lck activating polypeptide RSKAKNPLY-RRRRRRRRR (SEQ ID NO: 24, IK14800), or the Lck activating polypeptide RSKAKNPLY-RRRRRRRRR (SEQ ID NO: 24) comprising only D amino acids (SEQ ID NO: 129, IKD14800), for 24 hours after which supernatants were assessed for IFN-γ by ELISA.

wild-type Jurkat cells [3] = assay: IL-2 secretion in stimulated wild-type Jurkat cells (ELISA); type: cell-based, human; settings: biotinylated anti-CD3, anti-CD28, avidin; 48 h exposure
Description: In brief, wild-type Jurkat cells (an immortalised line of human T lymphocyte cells) were stimulated by exposure to biotinylated anti-CD3 antibody in the presence of anti-CD28 antibody and avidin. During the culture period (48 hours or 72 hours) cells were exposed to test polypeptides. Cell supernatant was assayed for IL-2 at the end of 48 or 72 hours using a standard commercially available ELISA kit as described above.
In brief, cells were seeded at 1 million cells per well (12 well plate, 2 mL volume) and stimulated with Biotin-CD3, CD28, and avidin (5:5:1.25 μg). The cells were then treated with IK14804, and then incubated for 48 hours at 37° C. The supernatant (100 uL, n=3), was then analyzed for IL-2 content.
In brief, wild-type Jurkat cells (am immortalised line of human T lymphocyte cells) were stimulated by exposure to biotinylated anti-CD3 antibody in the presence of anti-CD28 antibody and avidin. Cells were seeded at 1 million cells per well (12 well plate, 2 mL volume) and stimulated with Biotin-anti-CD3, anti-CD28, and avidin (5:5:1.25 μg). Cells were treated with the test peptides and then incubated for 48 hours at 37° C. The supernatants (100 ul, n=3), were then analysed for IL-2 and IL-12 content. During the culture period (48 hours) cells were exposed to test polypeptide RSKAKNPLYR-(2Adod)4-NH2 (SEQ ID NO: 128). Cell supernatant was assayed for IL-2 and IL-12 at the end of 48 hours using standard commercially available ELISA kit as described above.

[4] = system: isolated human CD8+ T cells; assay: IFN-γ secretion in stimulated CD8+ T cell assay; type: cell-based; settings: anti-CD3 anti-CD28 Dynabeads, 24 hours
Description: The ability of Lck activating polypeptides to alter IFN-γ secretion by isolated human CD8+ T cells in a stimulated CD8+ T cell assay was examined. In brief, Isolated CD8+ T cells were stimulated with anti-CD3 anti-CD28 Dynabeads™ and cultured together with the Lck activating polypeptides RRRRRRRRR (SEQ ID NO: 6, IK00900) and RSKAKNPLY-RRRRRRRRR (SEQ ID NO: 24, IK14800) for 24 hours after which supernatants were assessed for IFN-γ by ELISA.
In brief, Isolated CD8+ T cells were stimulated with anti-CD3 anti-CD28 Dynabeads™ and cultured together with the Lck activating polypeptide RSKAKNPLY-RRRRRRRRR (SEQ ID NO: 24), comprising only D amino acids (SEQ ID NO: 129, IKD14800), for 24 hours after which supernatants were assessed for IFN-γ by ELISA.

[5] = system: anti-CD3 stimulated PBMCs; assay: IL-12p70 secretion in anti-CD3 stimulated PBMCs; type: cell-based, human; settings: 24 hours
Description: The ability of Lck activating polypeptides to alter IL-12 (IL-12p70) secretion was examined further. In brief, anti-CD3 stimulated PBMCs were cultured together with the Lck activating polypeptides RVKVKVVVV-RRRRRRRRR (SEQ ID NO: 58, “IK15800”), RSKAKNPLY-RRRRRRRRR (SEQ ID NO: 24, “IK14800”), and RVKVKVVVV-RRRRRRRRR (SEQ ID NO: 58) and RSKAKNPLY-RRRRRRRRR (SEQ ID NO: 24) comprising only D amino acids (SEQ ID NO: 111, “IKD15800”, and SEQ ID NO: 129, “IKD14800”, respectively), in the presence and absence of anti-CD40L blocking antibody for 24 hours. Supernatants were assessed for IL-12p70 levels by ELISA.
The ability of Lck activating polypeptides to alter IL-12 (IL-12p70) secretion was examined relative to no peptide. In brief, PBMCs were cultured together with anti-CD3 (1 ug/ml) and the Lck activating polypeptide RSKAKNPLY-RRRRRRRRR (SEQ ID NO: 24) or RVKVKVVVV-RRRRRRRRR (SEQ ID NO: 58) for 24 or 72 hours. Supernatants were assessed for IL-12p70 levels by ELISA.

[6] = system: isolated human CD4+ T cells; assay: IL-2 secretion from isolated stimulated CD4+ T cells; type: cell-based; settings: anti-CD3 anti-CD28 Dynabeads, 0-1.25 μM, 24 hours; data not shown
Description: In brief, CD4+ and CD8+ T cells were isolated and immuno-magnetically separated from healthy human PBMCs. Levels of IL-2 were examined following anti-CD3 and anti-CD28 stimulation for 48 hours in the presence the Lck activating fusion polypeptide RSKAKNPLY-RRRRRRRRR (SEQ ID NO: 24).
The effect of Lck activating polypeptides on IL-2 secretion from CD4+ T cells in a stimulated CD4+ T cell assay was also examined. In brief, Isolated CD4+ T cells were stimulated with anti-CD3 anti-CD28 Dynabeads™ and cultured together with the Lck activating polypeptides RRRRRRRRR (SEQ ID NO: 6, “IK00900”) and RSKAKNPLY-RRRRRRRRR (SEQ ID NO: 24, “IK14800”), over a 5-concentration range plus vehicle control (0-1.25 μM) for 24 hours after which supernatants were assessed for IL-2 and IFN-γ by ELISA.

wild-type Jurkat cells [7] = assay: IL-2R alpha (CD25) expression in PMA/ionomycin stimulated Jurkat cells; type: cell-based, human; settings: PMA and ionomycin stimulated; peptide 2.5 μM, 96 hours; cell lysates
Description: In brief, wild-type Jurkat cells (1×10^6 cells) were cultured in standard RPMI medium and 10% foetal calf serum as above and either not stimulated or stimulated with PMA (50 ng/ml) and ionomycin for a period of 96 hours. Cells were exposed to the test peptides (2.5 μM conc.) listed in FIG. 10 for the entire 96 hour culture period, and IL-2R alpha levels were determined in cell lysates using a standard commercial ELISA format as described above.

CD4+ T cells = assay: IL-21 production by CD4+ T cells; type: cell-based; settings: anti-CD3 anti-CD28, 48 hr; detected in one donor only
Description: In brief, CD4+ T cells were isolated and cultured in the presence of anti-CD3 anti-CD28 stimulation and RSKAKNPLY-RRRRRRRRR (SEQ ID NO: 24) for 24 hr or 48 hr. At the end of culture, supernatants were assessed for IL-21 by ELISA.

Substance: rskaknply ([dR][dS][dK][dA][dK][dN][dP][dL][dY]) [IKD94000]
- IL-12 secretion relative to control (wild-type Jurkat cells [1]): increase IL-12 secretion

Substance: RRRRRRRRR [IK00900]
- IL-12 secretion relative to control (wild-type Jurkat cells [1]): induced IL-12 secretion
- IFN-γ secretion relative to no peptide control (human PBMCs): induce IFN-γ secretion
- IL-21R expression (isolated CD4+ T cells): do not increase IL-21R expression
- IFN-γ secretion relative to no peptide control [2]: induced IFN-γ secretion
- IL-2 secretion relative to control (wild-type Jurkat cells [3]): induces IL-2 secretion
- IFN-γ secretion relative to no peptide control [4]: induced IFN-γ secretion
- IL-12 (IL-12p70) secretion relative to cultures with anti-CD40L blocking antibody [5]: induced IL-12 secretion
- IL-2 secretion relative to control [6]: induce IL-2 secretion

Substance: HHHHH-RSKAKNPLY-RRRRRRRRR (HHHHHRSKAKNPLYRRRRRRRRR) [IK11480]
- IL-2R alpha (CD25) expression (wild-type Jurkat cells [7]): increased

Substance: RSKAKNPLY-RRRRRRRRRR (RSKAKNPLYRRRRRRRRRR) [IK14900]
- IL-2R alpha (CD25) expression (wild-type Jurkat cells [7]): increased

Substance: RSKAKNPLY-RRRRRRRRR-HHHHHHHHHHHH (RSKAKNPLYRRRRRRRRRHHHHHHHHHHHH) [IK14820]
- IL-2R alpha (CD25) expression (wild-type Jurkat cells [7]): increased

Substance: IL-6: control in FIG. 28 showing boost to IL-21 secretion
- IL-21 production (CD4+ T cells): boost to IL-21 secretion

— patent publication US12134663B2, “Cationic peptides for activating Lck” (Interk Peptide Therapeutics Limited, priority 2018, dated 2024)
